Results taken from patent US20210015725A1, “SKINCARE PRODUCT AND METHOD OF PREPARATION THEREOF” (FE:I BEAUTY TECH, INC., priority 2012, published 2021).

Columns and labels:
[1] = molecular target: Ferritin (Homo sapiens, UniProt P02792+P02794); experiment: Reduction of iron from ferritin by vitamin C; format: biochemical
Protocol: Reduction of iron from ferritin by vitamin C: Ferritin at a concentration of 1 mg/ml was incubated with various concentrations of vitamin C (0-500 μM). […] Levels of iron in the filtrates were measured by Ferrozine (Sigma, St. Louis, Mo.), which forms a stable magenta-colored complex (Fe^2+-ferrozine) with a maximum absorption at 560 nm. In brief, 30 μl sample was added to 135 μl buffer. After 10 min incubation at 37° C., the absorbance was measured at 560 nm using a UV—visible microplate reader (SpectraMax Plus, Molecular Devices, Sunnyvale, Calif.). Then, 5 μl iron chromogenic agent (ferrozine) was added and after 15 min incubation, the absorbance was measured again at 560 nm. The difference in absorbance was used to calculate iron concentration after comparing to the iron standard curve. To determine whether iron is completely released from ferritin, atomic absorption (AA) was used to measure total iron in ferritin.

[2] = calcium carbonate 0-10%, various time periods of incubation
Protocol: Precipitation of iron by calcium carbonate: Iron was added to extracellular matrix, followed by the addition of different concentrations of calcium carbonate (0-10%) (FIG. 5). After various time periods of incubation, a small part of the mixture was filtered using a membrane with a molecular weight cutoff of 5,000 Dalton as previously described in FIG. 4. Levels of iron in the filtrates were determined by Ferrozine.

Ferritin, sequence (P02794 whole entry, species assumed): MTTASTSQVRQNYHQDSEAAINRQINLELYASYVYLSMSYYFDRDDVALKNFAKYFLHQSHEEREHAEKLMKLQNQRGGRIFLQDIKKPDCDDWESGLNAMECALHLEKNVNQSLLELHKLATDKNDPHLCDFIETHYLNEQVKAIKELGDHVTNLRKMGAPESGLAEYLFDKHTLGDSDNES
Ferritin, sequence (P02792 whole entry, species assumed): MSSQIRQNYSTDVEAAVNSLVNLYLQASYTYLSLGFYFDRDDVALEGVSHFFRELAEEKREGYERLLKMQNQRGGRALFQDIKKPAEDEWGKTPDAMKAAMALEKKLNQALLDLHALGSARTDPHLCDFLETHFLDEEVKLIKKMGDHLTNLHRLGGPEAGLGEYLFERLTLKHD

| completeness of iron release from ferritin (atomic absorption, total iron) ([1]; after vitamin C reduction) | Structure (SMILES) | release of iron from ferritin (iron in filtrates measured by Ferrozine) ([1]; ferritin 1 mg/ml, vitamin C 0-500 μM, one hour incubation) | precipitation of iron (iron in filtrates by Ferrozine) [2] |
| --- | --- | --- | --- |
| all iron in ferritin is released | O=C1O[C@H]([C@@H](O)CO)C(O)=C1O [vitamin C] | effective in releasing iron from ferritin | – |
| – | O=C([O-])[O-].[Ca+2] [calcium carbonate] | – | can effectively precipitate iron |
